The source of these data is patent US5019505A, “Enzymes having alpha-glycerol-3-phosphate oxidase activity, production and use thereof” (GEnzyme (U.K.) Ltd., priority 1986, dated 1991).

“And” between values parts separate entries of the source, which are not always exact repeats. Equal values may be shown once. Read-outs that look alike come from different tables or passages of the source.

For experiment [1], the system named is α-GPO from P. acidi-propionici (formerly arabinosum) (NCIMB 5958). In words: α-GPO assay (Trinder-type H2O2 colour reaction). Type of experiment: biochemical, P. acidi-propionici (NCIMB 5958). As to conditions: cell-free extract, read-out: Km of the α-GPO for L-α-glycerol-3-phosphate. As to the method:
(§1) Freeze-dried cultures of `P. acidi-propionici`(formerly `arabinosum`) NCIMB 5958) and `P. freudenreichii` subsp. `shermanii`(formerly `P. shermanii`) (NCIMB 9885) were obtained from the National Collection of Industrial and Marine Bacteria, Torry Research Station, Aberdeen, Scotland. The organisms were grown in a similar manner to that described above for `P. freudenreichii` subsp. `freudenriechii` (DSM 20270). The microorganisms were harvested, disrupted and assayed for α-GPO again in a similar way to `P. `freudenreichii` subsp. `freudenreichii` (DSM 20270).

For experiment [2], the system named is α-GPO from P. freudenreichii subsp. shermanii (NCIMB 5964). Nature of the experiment: α-GPO assay (Trinder-type H2O2 colour reaction). Type of experiment: biochemical. Particulars: read-out: Km for L-α-glycerol-3-phosphate.
Experiment [3] deals with previously described examples of α-GPO. As to conditions: prior art enzymes; read-out: Km values for L-α-glycerol-3-phosphate; cited from earlier work.
Experiment [4] concerns α-GPO from P. freudenreichii subsp. freudenreichii (NCIMB 5959). In words: α-GPO assay (Trinder-type H2O2 colour reaction). Type of experiment: biochemical. Particulars: read-out: Km for L-α-glycerol-3-phosphate.
Experiment [5] deals with α-GPO from P. freudenreichii subsp. shermanii (formerly P. shermanii) (NCIMB 9885). In words: α-GPO assay (Trinder-type H2O2 colour reaction). Type of experiment: biochemical, P. freudenreichii subsp. shermanii (NCIMB 9885). Particulars: cell-free extract, read-out: Km of the α-GPO for L-α-glycerol-3-phosphate. As to the method:
as §1

The subject of experiment [6] is α-glycerol-3-phosphate oxidase (α-GPO) from Propionibacterium freudenreichii subsp. freudenreichii (DSM 20270). In words: α-GPO assay (Trinder-type H2O2 colour reaction, 505nm, 37° C.). Type of experiment: biochemical. How it is done: Aliquots of the resulting supernatant containing partially purified α-GPO were used in the following test system: […]
L-α-glycerol-3-phosphate
4-amino-antipyrine 1.5 mM
Dimethylglutarate buffer (DMG; pH 7.5)
The rate of change of absorbance was measured at 505nm, 37° C. in a spectrophotometer.

The mark [7] stands for this setting: listed as L-α0glycerol-3-phosphate.

In the case of `O=P(O)(O)OC[C@H](O)CO` [L-α-glycerol-3-phosphate], the Km in experiment [1] (setting [7]) is 18 µM; in experiment [1] it was ~18 µM; in experiment [2] it was 6 µM and ~6 µM; in experiment [3], ≥ 2500 µM; in experiment [4], 26 µM and ~26 µM; in experiment [5] (setting [7]), 22 µM. In addition, the Km is ~22 µM in experiment [5]; 15 µM in experiment [6] (characterisation of the preferred enzyme, read-out: Michaelis-Menten constant (Km) in respect of L-α-glycerol-3-phosphate); 15 µM in experiment [6] (high speed centrifugation supernatant, DMG pH 7.5, 37° C., 505nm, read-out: Km of the α-GPO for its substrate, L-α-glycerol-3-phosphate); 15 µM in experiment [6] (pooled active fractions after Sephadex G-200 gel filtration, read-out: Km of the α-GPO for its substrate L-α-glycerol-3-phosphate); 15 µM and ~15 µM in experiment [6] (read-out: Km for L-α-glycerol-3-phosphate). In addition, the “fold lower Km value than previously described α-GPO” value in experiment [6] (versus Km of 2.5mM or greater of previously described α-GPO) turned out to be 170 fold.
